In publication PMC6375636, “Monotherapy with a low-dose lipopeptide HIV fusion inhibitor maintains long-term viral suppression in rhesus macaques” (PLoS Pathogens, 2019):
Where two headings read alike, the source gives them in different places. Peptide text beside a SMILES is read from it. * marks the point of attachment. Stearoyl = CCCCCCCCCCCCCCCCCC(=O)*; Palmitoyl = CCCCCCCCCCCCCCCC(=O)*

Experiments:
[1] = system: HIV-1NL4-3(D36G) pseudovirus; assay type: cell-based
Protocol: (§1) The inhibitory activities of inhibitors against HIV-1 pseudoviruses and replication-competent isolates were measured as described previously. Briefly, HIV-1 pseudoviruses were generated via the cotransfection of HEK293T cells with an Env-expressing plasmid and a backbone plasmid that encodes Env-defective, luciferase-expressing HIV-1 genome (pSG3Δenv). Viral stocks of replication-competent HIV-1 isolates were generated by transfecting viral molecular clones into HEK293T cells. […] Inhibitors were prepared in 3-fold dilutions, mixed with 100 TCID50 of a virus, and then incubated for 1 h at room temperature. […] Luciferase activity was measured as described above.

[2] = system: HIV-1 pseudovirus, primary Env R3A; assay type: cell-based; conditions: subtype B, mean ± SD of 3 assays in triplicate
Summary of the method: (§2)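 Inhibition was scored by luciferase after 48 h infection of TZM-bl cells at 37°C, using 100 TCID50 of HEK293T-produced virus preincubated 1 h at room temperature with threefold-diluted compound.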

[3] = system: divergent HIV-1 subtypes (pseudoviruses with primary Envs); assay type: cell-based; conditions: mean of the 36 pseudoviruses of Table 3; for VRC01 >300000 apparently counted as 300000; read-out: Mean IC50 over divergent HIV-1 subtypes
Summary of the method: as §2

[4] = lipopeptide alone, 10 μM in PBS, representative of 2 assays; for Helix content (%): [θ]222 / -33,000
[5] = system: NL4-3G36S/V38M pseudovirus; assay type: cell-based, HIV-1; conditions: T-20 resistant, mean ± SD of 3 assays in triplicate
Protocol: as §1

[6] = system: NL4-3I37T pseudovirus; assay type: cell-based, HIV-1; conditions: T-20 resistant, mean ± SD of 3 assays in triplicate
Protocol: as §1

[7] = system: NL4-3I37T/N43K pseudovirus; assay type: cell-based, HIV-1; conditions: T-20 resistant, mean ± SD of 3 assays in triplicate
Protocol: as §1

[8] = system: NL4-3N43K pseudovirus; assay type: cell-based, HIV-1; conditions: T-20 resistant, mean ± SD of 3 assays in triplicate
Protocol: as §1

[9] = system: NL4-3Q40H pseudovirus; assay type: cell-based, HIV-1; conditions: T-20 resistant, mean ± SD of 3 assays in triplicate
Protocol: as §1

[10] = system: NL4-3V38A pseudovirus; assay type: cell-based, HIV-1; conditions: T-20 resistant, mean ± SD of 3 assays in triplicate
Protocol: as §1

[11] = system: NL4-3V38A/N42T pseudovirus; assay type: cell-based, HIV-1; conditions: T-20 resistant, mean ± SD of 3 assays in triplicate
Protocol: as §1

[12] = system: NL4-3V38M pseudovirus; assay type: cell-based, HIV-1; conditions: T-20 resistant, mean ± SD of 3 assays in triplicate
Protocol: as §1

[13] = system: NL4-3WT pseudovirus; assay type: cell-based, HIV-1; conditions: T-20 resistant, mean ± SD of 3 assays in triplicate, value in parentheses behind the bound
Protocol: as §1

[14] = Fig 1, NL4-3(D36G) pseudovirus, mean ± SD of three assays in triplicate, read-out: Anti-HIV activity (IC50, pM) NL4-3 entry
[15] = Table 4, NL4-3D36G, T-20 sensitive, mean ± SD of 3 assays in triplicate, value in parentheses behind the bound, read-out: IC50

Row | Compound | IC50 [1, 14] [pM] | IC50 [2] [nM] | IC50 [3] [nM] | [θ]222 ([4]; room temperature) [degree.cm^2.dmol^-1] | Helix content (%) [4] [%] | Tm (°C) ([4]; ellipticity at 222 nm, 20-98°C, 2°C/min) | IC50 [1, 15] [pM] | IC50 [5] [nM] | IC50 [6] [nM] | IC50 [7] [nM] | IC50 [8] [nM] | IC50 [9] [nM] | IC50 [10] [nM] | IC50 [11] [nM] | IC50 [12] [nM] | IC50 [13] [nM]
1 | CCCCCCCCCCCCCCCC(=O)NCCCC[C@H](NC(=O)[C@H](CCC(=O)O)NC(=O)[C@H](CC(C)C)NC(=O)[C@H](CCCCN)NC(=O)[C@H](CCCCN)NC(=O)[C@H](CC(C)C)NC(=O)[C@H](CCC(=O)O)NC(=O)[C@H](CCC(=O)O)NC(=O)[C@H](CCC(=O)O)NC(=O)[C@H](CC(N)=O)NC(=O)[C@H](CCCCN)NC(=O)[C@H](CCCCN)NC(=O)[C@H](CCC(N)=O)NC(=O)[C@H](CCC(N)=O)NC(=O)[C@H](CCC(=O)O)NC(=O)[C@H](CCC(=O)O)NC(=O)[C@H](C)NC(=O)[C@H](CCCCN)NC(=O)[C@H](CCCCN)NC(=O)[C@H](CC(C)C)NC(=O)[C@H](CC(C)C)NC(=O)[C@H](CCC(=O)O)NC(=O)[C@H](CCC(=O)O)NC(=O)[C@@H](NC(=O)[C@H](CCCCN)NC(=O)[C@H](CCC(N)=O)NC(=O)[C@H](CCC(=O)O)NC(=O)[C@H](Cc1c[nH]c2ccccc12)NC(C)=O)[C@@H](C)CC)C(N)=O [LP-52, reference compound] (Ac-WEQKIEELLKKAEEQQKKNEEELKKLEK(Palmitoyl)-NH2) | 6.12 ± 0.25 | 0.00922 ± 0.0019 | 0.017 | -14952 | 45 | 56 | – | – | – | – | – | – | – | – | – | –
2 | CCCCCCCCCCCCCCCCCC(=O)NCCCC[C@H](NC(=O)[C@H](CCC(=O)O)NC(=O)[C@H](CC(C)C)NC(=O)[C@H](CCCCN)NC(=O)[C@H](CCCCN)NC(=O)[C@H](CC(C)C)NC(=O)[C@H](CCC(=O)O)NC(=O)[C@H](CCC(=O)O)NC(=O)[C@H](CCC(=O)O)NC(=O)[C@H](CC(N)=O)NC(=O)[C@H](CCCCN)NC(=O)[C@H](CCCCN)NC(=O)[C@H](CCC(N)=O)NC(=O)[C@H](CCC(N)=O)NC(=O)[C@H](CCC(=O)O)NC(=O)[C@H](CCC(=O)O)NC(=O)[C@H](C)NC(=O)[C@H](CCCCN)NC(=O)[C@H](CCCCN)NC(=O)[C@H](CC(C)C)NC(=O)[C@H](CC(C)C)NC(=O)[C@H](CCC(=O)O)NC(=O)[C@H](CCC(=O)O)NC(=O)[C@@H](NC(C)=O)[C@@H](C)CC)C(N)=O [LP-90] (Ac-IEELLKKAEEQQKKNEEELKKLEK(Stearoyl)-NH2) | 3.55 | – | 0.0134 | – | 30 | – | < 10 | 2.37 ± 0.39 | 0.51 ± 0.09 | 46.3 ± 0.79 | 5.05 ± 0.13 | 4.17 ± 0.14 | 8.25 ± 0.55 | 49.2 ± 2.19 | 4.32 ± 0.78 | 0.03
3 | enfuvirtide [Lipopeptide T-20, reference compound] | 8560 ± 1050 | 6.88 ± 1.12 | 30 | – | – | – | 8770 ± 1020 | 317.3 ± 1.65 | 1220 ± 120 | 6950 ± 1140 | 748 ± 41.9 | 1150 ± 88 | 2240 ± 33.1 | 5950 ± 700 | 1050 ± 74.8 | 166 ± 19
